# Laboratory results as given in ChEMBL document CHEMBL5316344, “Homologation of the Alkyl Side Chain of Antimitotic Phenyl 4-(2-Oxo-3-alkylimidazolidin-1-yl)benzenesulfonate Prodrugs Selectively Targeting CYP1A1-Expressing Breast Cancers Improves Their Stability in Rodent Liver Microsomes” (J Med Chem, 2023).
# pIC50: −log10 of the molar value. Activity calls are given as the source filed them. The rule behind the calls is not given here.
# Legend:
# MDA-MB-231 = assay: Antiproliferative activity against ER/PR/HER2-negative human MDA-MB-231 cells assessed as cell growth inhibition incubated for 72 hrs by sulforhodamine B assay; format: functional, cell-based; conditions: MDA-MB-231, 72 h
# HT-1080 [1] = assay: Antitumor activity against human HT-1080 cells transfected with empty vector xenografted in chick embryo assessed as reduction in tumor wet weight at 1 ug, iv incubated for 17 days by CAM assay; format: functional; set-up: scale not given: the % may be the effect or the level left; conditions: dose 1 µg, time 17 day
# [2] = Toxicity in chick embryo xenografted with human […] cells assessed as mortality at 1 ug, iv incubated for 17 days; format: organism-based, Gallus gallus; conditions: chicken, in vivo, 408 h, dose 1 µg, time 17 day
# HT-29 = assay: Antiproliferative activity against human HT-29 cells assessed as cell growth inhibition incubated for 48 hrs by sulforhodamine B assay; format: functional, cell-based; conditions: HT-29, 48 h
# MCF7 [3] = assay: Induction of cell cycle arrest in human MCF7 cells expressing CYP1A1 assessed as accumulation of cells at S phase at 25 nM incubated for 48 hrs by DAPI staining based flow cytometric analysis (reference value: 11+/-1 %); format: functional
# MCF7 [4] = assay: Antiproliferative activity against human MCF7 cells expressing CYP1A1 assessed as cell growth inhibition incubated for 48 hrs by sulforhodamine B assay; format: functional, cell-based; conditions: MCF7, 48 h
# [5] = Toxicity in chick embryo xenografted with human […] cells transfected with empty vector assessed as mortality at 1 ug, iv incubated for 17 days; format: organism-based, Gallus gallus; conditions: chicken, in vivo, 408 h, dose 1 µg, time 17 day
# HT-1080 [6] = assay: Antitumor activity against human HT-1080 cells expressing CYP1A1 xenografted in chick embryo assessed as reduction in tumor wet weight at 1 ug, iv incubated for 17 days by CAM assay; format: functional; set-up: scale not given: the % may be the effect or the level left; conditions: dose 1 µg, time 17 day
# MCF7 [7] = assay: Antiproliferative activity against […] human MCF7 cells assessed as cell growth inhibition incubated for 72 hrs by sulforhodamine B assay; format: functional, cell-based; conditions: MCF7, 72 h
# [8] = Selectivity ratio, ratio of IC50 for antiproliferative activity against ER/PR/HER2-negative human MDA-MB-231 cells to IC50 for antiproliferative activity against ER/PR-negative HER2-positive human SK-BR-3 cells; format: functional
# SK-BR-3 = assay: Antiproliferative activity against ER/PR-negative HER2-positive human SK-BR-3 cells assessed as cell growth inhibition incubated for 72 hrs by sulforhodamine B assay; format: functional, cell-based; conditions: SK-BR-3, 72 h
# [9] = Selectivity ratio, ratio of IC50 for antiproliferative activity against ER/PR/HER2-negative human MDA-MB-231 cells to IC50 for antiproliferative activity against […] human MCF7 cells; format: functional
# HT-1080 [10] = assay: Antitumor activity against human HT-1080 cells xenografted in chick embryo assessed as reduction in tumor wet weight at 1 ug, iv incubated for 17 days by CAM assay; format: functional; set-up: scale not given: the % may be the effect or the level left; conditions: dose 1 µg, time 17 day
# [11] = Selectivity ratio, ratio of IC50 for antiproliferative activity against human HT-29 cells to IC50 for antiproliferative activity against human MCF7 cells expressing CYP1A1; format: functional
# T47D = assay: Antiproliferative activity against ER/PR-positive HER2-negative human T47D cells assessed as cell growth inhibition incubated for 72 hrs by sulforhodamine B assay; format: functional, cell-based
# Tubulin (Homo sapiens) = Tubulin (Homo sapiens) (UniProt P68371+Q9H4B7+P0DPH7+P68366+Q13509+Q71U36+P04350+Q3ZCM7+P07437+P68363+Q9BQE3+Q6PEY2+Q13885+Q9BVA1+Q9BUF5); assay: Disruption of microtubules in human MCF7 cells expressing CYP1A1 assessed as cytoskeleton disruption at 15 nM measured after 48 hrs by DAPI staining based fluorescence microscopic analysis; format: cell-based
# [12] = Selectivity ratio, ratio of IC50 for antiproliferative activity against ER/PR/HER2-negative human MDA-MB-231 cells to IC50 for antiproliferative activity against ER/PR/HER2-negative human MDA-MB-468 cells; format: functional
# MCF7 [13] = assay: Induction of cell cycle arrest in human MCF7 cells expressing CYP1A1 assessed as accumulation of cells at G0/G1 phase at 25 nM incubated for 48 hrs by DAPI staining based flow cytometric analysis (reference value: 74+/-2 %); format: functional
# M21 = assay: Antiproliferative activity against human M21 cells assessed as cell growth inhibition incubated for 48 hrs by sulforhodamine B assay; format: functional, cell-based; conditions: M21, 48 h
# [14] = Selectivity ratio, ratio of IC50 for antiproliferative activity against ER/PR/HER2-negative human MDA-MB-231 cells to IC50 for antiproliferative activity against ER/PR-positive HER2-negative human T47D cells; format: functional
# MDA-MB-468 = assay: Antiproliferative activity against ER/PR/HER2-negative human MDA-MB-468 cells assessed as cell growth inhibition incubated for 72 hrs by sulforhodamine B assay; format: functional, cell-based; conditions: MDA-MB-468, 72 h
# [15] = Selectivity ratio, ratio of IC50 for antiproliferative activity against human M21 cells to IC50 for antiproliferative activity against human MCF7 cells expressing CYP1A1; format: functional
# MCF7 [16] = assay: Induction of cell cycle arrest in human MCF7 cells expressing CYP1A1 assessed as accumulation of cells at G2/M phase at 25 nM incubated for 48 hrs by DAPI staining based flow cytometric analysis (reference value: 16+/-2 %); format: functional
# [17] = Toxicity in chick embryo xenografted with human […] cells expressing CYP1A1 assessed as mortality at 1 ug, iv incubated for 17 days; format: organism-based, Gallus gallus; conditions: chicken, in vivo, 408 h, dose 1 µg, time 17 day
# [18] = Selectivity ratio, ratio of IC50 for antiproliferative activity against human HT-1080 cells transfected with empty vector to IC50 for antiproliferative activity against human HT-1080 cells expressing CYP1A1; format: functional
# MCF7 [19] = assay: Induction of cell cycle arrest in human MCF7 cells expressing CYP1A1 assessed as accumulation of cells at S phase at 15 nM incubated for 48 hrs by DAPI staining based flow cytometric analysis (reference value: 11+/-1 %); format: functional
# HT-1080 [20] = assay: Antiproliferative activity against human HT-1080 cells assessed as cell growth inhibition incubated for 48 hrs by sulforhodamine B assay; format: functional, cell-based; conditions: HT-1080, 48 h
# MCF7 [21] = assay: Induction of cell cycle arrest in human MCF7 cells expressing CYP1A1 assessed as accumulation of cells at G2/M phase at 15 nM incubated for 48 hrs by DAPI staining based flow cytometric analysis (reference value: 16+/-2 %); format: functional
# MCF7 [22] = assay: Induction of cell cycle arrest in human MCF7 cells expressing CYP1A1 assessed as accumulation of cells at G0/G1 phase at 15 nM incubated for 48 hrs by DAPI staining based flow cytometric analysis (reference value: 74+/-2 %); format: functional
# [23] = Selectivity ratio, ratio of IC50 for antiproliferative activity against human HT-1080 cells to IC50 for antiproliferative activity against human HT-1080 cells expressing CYP1A1; format: functional
# HT-1080 [24] = assay: Antiproliferative activity against human HT-1080 cells transfected with empty vector assessed as cell growth inhibition incubated for 48 hrs by sulforhodamine B assay; format: functional, cell-based; conditions: HT-1080, 48 h
# HT-1080 [25] = assay: Antiproliferative activity against human HT-1080 cells expressing CYP1A1 assessed as cell growth inhibition incubated for 48 hrs by sulforhodamine B assay; format: functional, cell-based; conditions: HT-1080, 48 h
structure (smiles),measurement,setting,value
COc1cc(OS(=O)(=O)c2ccc(N3CCNC3=O)cc2)cc(OC)c1OC,pIC50,MDA-MB-231,8.16
same,Activity,HT-1080 [1],79%
same,Activity,[2],Non-Toxic
same,pIC50,HT-29,7.40
same,Activity,MCF7 [3],9%
same,pIC50,MCF7 [4],7.60
same,Activity,[5],Non-Toxic
same,Activity,HT-1080 [6],68%
same,pIC50,MCF7 [7],8.47
same,Ratio IC50,[8],2.3
same,pIC50,SK-BR-3,8.52
same,Ratio IC50,[9],2
same,Activity,HT-1080 [10],49%
same,Ratio IC50,[11],1.6
same,pIC50,T47D,7.89
same,Activity,Tubulin (Homo sapiens),Active
same,Ratio IC50,[12],1.3
same,Activity,MCF7 [13],28%
same,pIC50,M21,7.40
same,Ratio IC50,[14],0.53
same,pIC50,MDA-MB-468,8.28
same,Ratio IC50,[15],1.6
same,Activity,MCF7 [16],63%
same,Activity,[17],Non-Toxic
COc1ccc(/C=C\c2cc(OC)c(OC)c(OC)c2)cc1O [COMBRETASTATIN A4],Ratio IC50,[18],0.62
same,Activity,MCF7 [19],8%
same,pIC50,HT-29,8.22
same,pIC50,MCF7 [4],8.05
same,pIC50,HT-1080 [20],8.22
same,Activity,MCF7 [21],72%
same,Activity,MCF7 [22],20.1%
same,Ratio IC50,[23],2.9
same,Ratio IC50,[11],0.66
same,pIC50,M21,9.40
same,pIC50,HT-1080 [24],8.89
same,Ratio IC50,[15],0.044
same,pIC50,HT-1080 [25],8.68
